Assay in all cases: Yeast 6x EcRE-lacZ β-galactosidase transactivation assay
In assay [1] the test system is Aa ΔA/B EcR + RXRβ + GRIP1. Type of assay: cell-based, Aedes aegypti; mouse. Particulars: RH 5992 10 μM, 4 hours, DMSO control 0.231. As for the experimental part: (§1) The human RXR α (Genbank accession number X52773), mouse RXR β (Genbank accession number X66224) or mouse RXR γ (Genebank accession number X66225) subtypes were expressed in yeast-E. coli multicopy 2μ expression plasmids under regulation of CUP1 promoter with the LEU2 selective marker (1).
(§2) Briefly, yeast cells are cultured in 5 mL of YPD liquid medium overnight at 30° C. The cell culture was diluted 1:20 in YPD media and further grown until cell density reached an O.D of 0.6. at OD600. The cells were pelleted by centrifugation and washed with 10 mL of TE+0.1M lithium acetate. Cells are then resuspended in 10 mL TE+0.1M lithium acetate and incubated at 30° C. for 1 hour. Cells are collected and resuspended in 0.5 mL of TE+ 0.1M lithium acetate. […]
(§3) Using the transformation method described above, yeast were co-transformed with a reporter gene as shown in FIG. 2 and the expression vector encoding the full-length Aedes aegypti ecdysone receptor, Aa EcR (FIG. 7A) in the presence or absence of the Aa EcR heterodimer partner, Aa USP (a or b form, FIGS. 8A and 8B respectively). […] As the N-terminal portion of the AaEcR receptor is reported to play a role in ligand independent transactivation, an expression vector containing an N-terminal deletion in the Aa EcR was constructed (see FIG. 7B) and assessed in the β-galactosidase assays described above. […]

The target in assay [2] is T1, Aa ΔA/B EcR + RXRγ + GRIP1 (Aedes aegypti, UniProt P49880).
T1 construct: ubiquitin (human, 76 aa) (N, cleaved yes); expressed in transfected cells
Type of assay: cell-based, Aedes aegypti; mouse. Particulars: RH 5992 10 μM, 4 hours, DMSO control 0.496. Here is the method:
as §1, §2, §3

For assay [3], the target named is T2, Aa ΔA/B EcR + Aa USPa + GRIP1 (Aedes aegypti, UniProt P49880).
T2 construct: ubiquitin (human, 76 aa) (N, cleaved yes); expressed in transfected cells
Type of assay: cell-based. Particulars: RH 5992 10 μM, 4 hours, DMSO control 0.272. As for the experimental part: (§4) Briefly, yeast cells are cultured in 5 mL of YPD liquid medium overnight at 30° C. The cell culture was diluted 1:20 in YPD media and further grown until cell density reached an O.D of 0.6. at OD600. The cells were pelleted by centrifugation and washed with 10 mL of TE+0.1M lithium acetate. Cells are then resuspended in 10 mL TE+0.1M lithium acetate and incubated at 30° C. for 1 hour. Cells are collected and resuspended in 0.5 mL of TE+ 0.1M lithium acetate. Aliquots of cells (50 μL), were incubated for 15 minutes at 30° C. with 1–2 μg plasmid DNA in the presence of 5 μg of denatured salmon sperm DNA as DNA carrier. In the case of co-transformation, the indicated plasmids were added simultaneously. 50% polyethyleneglycol of molecular weight 4000, diluted in TE, was added to a final concentration of 35%. DMSO was added to the transformation solution simultaneously to a final concentration 3%. The samples were mixed well by vortexing and incubated for an additional 30 minutes at 30° C. The cell mixture is then heated for 15 minutes at 42° C. Cells were then collected and plated onto appropriate yeast selective media. Transformants of 4 plasmids are selected on the complete media without tryptophan, uracil, leucine and histidine.
(§5) The yeast cells grown overnight in selective liquid media at 30° C. were diluted in prewarmed liquid selective media to 0.1 at OD600 (ODculture). 100 μl of the cell culture was spiked to each well of a.96-well microtiter plate. […] After 4 hours of incubation, 100 μl of 2× “Z” Sarcosine-ONPG buffer (120 mM Na2HPO4, 80 mM NaH2PO4, 20 mM KCl, 2 mM MgSO4, 100 mM beta-mercaptoethanol (Sigma), pH 7.0, 0.4% lauroyl sarcosine (Sigma), 4 mg/mL ONPG (Diagnostic Chemicals limited) was added to each well and the plate was further incubated at 37° C. The 2× “Z” Sarcosine-ONPG buffer is freshly prepared or stored at −20° C. prior to use. After incubation at 37° C. for 1 hour. The reaction was stopped by adding 100 μL of quenching solution 0.5 M Na2CO3 and OD405 (ODreaction) and beta-galactosidase activity was measured in a micro plate reader (Biotek) at a wave length of 405–450 nanometers. […]
as §3

The target in another assay is T3, Aa EcR (Aedes aegypti, UniProt P49880, DEL155-194).
T3 construct: ubiquitin (human, 76 aa) (N, cleaved yes); expressed in transfected cells
The assay is classed as cell-based. Particulars: RH 5992 10 μM, 4 hours, DMSO control 2.500. As for the experimental part:
as §4, §5, §3

Assay [4] concerns the target T4, Aa ΔA/B EcR + AaUSPb + GRIP1 (Aedes aegypti, UniProt P49880).
T4 construct: ubiquitin (human, 76 aa) (N, cleaved yes); expressed in transfected cells
Type of assay: cell-based. Particulars: RH 5992 10 μM, 4 hours, DMSO control 0.240. As for the experimental part: as §4, §5, §3

The next assay has as its target T5, Aa ΔA/B EcR + Aa USPb (Aedes aegypti, UniProt P49880).
T5 construct: ubiquitin (human, 76 aa) (N, cleaved yes); expressed in transfected cells
Type of assay: cell-based. Particulars: RH 5992 10 μM, 4 hours, DMSO control 0.177. Here is the method:
as §4, §5, §3

T2 sequence (P49880 with tags, fused parts or gaps): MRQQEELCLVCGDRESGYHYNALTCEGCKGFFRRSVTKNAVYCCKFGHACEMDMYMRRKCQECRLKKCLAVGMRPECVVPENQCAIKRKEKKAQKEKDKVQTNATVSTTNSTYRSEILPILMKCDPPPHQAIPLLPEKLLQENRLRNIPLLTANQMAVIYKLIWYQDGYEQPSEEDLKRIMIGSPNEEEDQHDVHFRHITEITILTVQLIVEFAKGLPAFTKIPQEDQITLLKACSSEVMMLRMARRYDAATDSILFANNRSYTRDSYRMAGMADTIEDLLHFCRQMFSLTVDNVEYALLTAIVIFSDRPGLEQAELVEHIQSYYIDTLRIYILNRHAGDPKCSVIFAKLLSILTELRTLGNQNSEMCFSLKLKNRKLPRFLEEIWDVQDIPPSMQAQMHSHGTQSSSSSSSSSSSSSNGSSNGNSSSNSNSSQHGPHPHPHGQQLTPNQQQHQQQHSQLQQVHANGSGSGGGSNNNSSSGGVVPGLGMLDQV
T4 sequence (P49880 with tags, fused parts or gaps): as above
T1 sequence (P49880 with tags, fused parts or gaps): as above
T1 sequence (P28705 whole entry partner): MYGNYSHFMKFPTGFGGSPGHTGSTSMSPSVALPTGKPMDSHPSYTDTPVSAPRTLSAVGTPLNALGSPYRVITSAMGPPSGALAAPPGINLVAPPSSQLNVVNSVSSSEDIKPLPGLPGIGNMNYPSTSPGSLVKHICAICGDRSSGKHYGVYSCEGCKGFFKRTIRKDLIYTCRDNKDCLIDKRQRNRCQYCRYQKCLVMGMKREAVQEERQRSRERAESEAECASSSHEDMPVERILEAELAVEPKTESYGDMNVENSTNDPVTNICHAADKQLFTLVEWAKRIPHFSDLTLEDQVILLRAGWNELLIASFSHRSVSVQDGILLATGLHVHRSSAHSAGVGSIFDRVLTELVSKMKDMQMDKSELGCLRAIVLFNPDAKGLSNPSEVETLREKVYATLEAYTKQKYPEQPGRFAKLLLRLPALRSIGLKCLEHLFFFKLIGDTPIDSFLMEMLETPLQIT
T5 sequence (P49880 with tags, fused parts or gaps): as the sequence (P49880 with tags, fused parts or gaps) above
T3 sequence (P49880 other isoform, or with tags, fused parts or gaps DEL155-194): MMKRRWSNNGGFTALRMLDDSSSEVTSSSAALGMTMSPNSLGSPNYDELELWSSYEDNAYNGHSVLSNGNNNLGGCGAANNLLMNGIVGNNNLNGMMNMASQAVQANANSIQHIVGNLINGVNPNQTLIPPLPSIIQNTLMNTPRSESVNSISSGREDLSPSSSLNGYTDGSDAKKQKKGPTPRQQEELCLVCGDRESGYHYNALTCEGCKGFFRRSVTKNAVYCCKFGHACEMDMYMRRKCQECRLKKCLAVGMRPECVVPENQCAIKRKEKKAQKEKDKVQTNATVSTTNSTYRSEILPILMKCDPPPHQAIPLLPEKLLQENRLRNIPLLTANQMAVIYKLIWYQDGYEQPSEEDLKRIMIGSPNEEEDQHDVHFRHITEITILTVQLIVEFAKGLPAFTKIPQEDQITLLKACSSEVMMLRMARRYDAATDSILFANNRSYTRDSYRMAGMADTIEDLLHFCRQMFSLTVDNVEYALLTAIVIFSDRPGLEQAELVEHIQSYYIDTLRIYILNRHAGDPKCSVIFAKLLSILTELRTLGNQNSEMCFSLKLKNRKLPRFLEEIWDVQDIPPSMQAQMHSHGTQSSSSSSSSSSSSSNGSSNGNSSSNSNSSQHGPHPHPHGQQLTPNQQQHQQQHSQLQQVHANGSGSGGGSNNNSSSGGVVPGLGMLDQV

As to `CCc1ccc(C(=O)NN(C(=O)c2cc(C)cc(C)c2)C(C)(C)C)cc1` [RH 5992, tebufenozide], the β-galactosidase activity in assay [1] was found to be 1.983; in assay [2], 2.666; in assay [3], 2.026; at Aa EcR it was 2.750; in assay [4], 2.074; on Aa ΔA/B EcR + Aa USPb it was 0.184.

These data come from patent publication US7037656B2, “Methods and compositions for identifying ligands for nuclear receptors” (priority 2000, dated 2006).
